Results on 8 molecules are retold here after PubChem BioAssay (NCI).

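Protocol summary: plate cells (96-well), add compound at 5 concentrations, incubate 48 h, interpolate endpoints linearly. Definition used: TGI = concentration required for complete inhibition of growth.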 Bounds are passed on as bounds.

Among the test systems are ACHN renal; CAKI-1 renal; HCT-15 colon; HOP-62 NSCLC; K-562 leukemia; KM12 colon; MALME-3M melanoma; MDA-MB-435; MOLT-4 leukemia; NCI-H460 lung; NCI/ADR-RES ovarian; RPMI-8226 leukemia; RXF 393 renal; SK-MEL-2 melanoma; SK-MEL-28 melanoma; SN12C renal; SNB-19 CNS; SW-620 colon; SK-OV-3 ovarian.
Common to all, as to experiment: NCI tumour cell line growth inhibition, 48 h

`CCOC(=O)CCCc1cc(=O)c2c(C)c3[nH]c4ccc(Cl)cc4c3c(C)c2[nH]1`: the TGI was 80.3 µM with ACHN renal; 43.2 µM in the assay with CAKI-1 renal; above 100 µM with HCT-15 colon; 44.4 µM in the assay with HOP-62 NSCLC; 79.6 µM in the assay with K-562 leukemia; above 100 µM with KM12 colon. For the same molecule, the TGI in the assay on MALME-3M melanoma was 73.2 µM; with MDA-MB-435, 47.8 µM; with MOLT-4 leukemia, above 100 µM; in the assay on NCI-H460 lung, 32.7 µM; in the assay with NCI/ADR-RES ovarian, 66.2 µM; in the assay with RPMI-8226 leukemia it was above 100 µM. Besides, the TGI in the assay on RXF 393 renal is 27.1 µM; in the assay on SK-MEL-2 melanoma, 71.8 µM; in the assay with SK-MEL-28 melanoma, above 100 µM; in the assay on SN12C renal, 95.3 µM; with SNB-19 CNS, 60.7 µM; in the assay on SW-620 colon, above 100 µM.
Consider `COC(=O)c1cc(C#N)[nH]c1-c1ccc(Br)s1`, for which the TGI in the assay on ACHN renal was 31.9 µM; in the assay on CAKI-1 renal, above 50.7 µM; in the assay with HCT-15 colon it was 28 µM; with HOP-62 NSCLC, 21.4 µM; with K-562 leukemia, above 48.4 µM; in the assay on KM12 colon it was above 50 µM. Besides, the TGI was 19.7 µM with MALME-3M melanoma; 34.5 µM in the assay with MDA-MB-435; 64.9 µM with MOLT-4 leukemia; 37.8 µM in the assay with NCI-H460 lung; 30.6 µM in the assay with NCI/ADR-RES ovarian; above 73.3 µM with RPMI-8226 leukemia. In addition, the TGI came out at 19.4 µM in the assay with RXF 393 renal; 18.6 µM with SK-MEL-2 melanoma; 24.4 µM with SK-MEL-28 melanoma; 24.7 µM in the assay with SK-OV-3 ovarian; 26 µM in the assay with SN12C renal; 22.3 µM with SNB-19 CNS. The TGI with SW-620 colon is 29.9 µM.
As to `C=CC(=O)C#Cc1cnc(OC)nc1OC`, the TGI was 23.6 µM with ACHN renal; 21.1 µM in the assay on CAKI-1 renal; 24.6 µM in the assay on HCT-15 colon; 45.7 µM in the assay on HOP-62 NSCLC; 3.84 µM in the assay on K-562 leukemia; 30 µM in the assay on KM12 colon. Moreover, the TGI was 53.3 µM with MALME-3M melanoma; 51.5 µM in the assay on MDA-MB-435; 4.13 µM in the assay with MOLT-4 leukemia; above 59.9 µM in the assay on NCI-H460 lung; above 86.7 µM with NCI/ADR-RES ovarian; 6.93 µM with RPMI-8226 leukemia. The TGI with RXF 393 renal was above 66.2 µM; in the assay with SK-MEL-2 melanoma, 59.7 µM; in the assay on SK-MEL-28 melanoma it was above 47 µM; in the assay on SK-OV-3 ovarian, above 100 µM; in the assay on SN12C renal, 37.7 µM; in the assay on SNB-19 CNS it was above 58.9 µM. This molecule also displayed a TGI in the assay with SW-620 colon of 23.4 µM.
As to `CN1C(=O)C(O)CC1c1ccccc1F` (stereo unspecified), the TGI in the assay with ACHN renal, in the assay on CAKI-1 renal, in the assay on HCT-15 colon, with HOP-62 NSCLC, in the assay on K-562 leukemia and with KM12 colon was above 100 µM each time. The TGI with MALME-3M melanoma, in the assay with MDA-MB-435, in the assay with MOLT-4 leukemia, in the assay on NCI-H460 lung, in the assay with NCI/ADR-RES ovarian and in the assay on RPMI-8226 leukemia was above 100 µM in each case. The TGI in the assay on RXF 393 renal, with SK-MEL-2 melanoma, in the assay on SK-MEL-28 melanoma, with SN12C renal, with SNB-19 CNS and in the assay on SW-620 colon was above 100 µM each time.
On to `CC(=O)OC1CCn2c1nc1c2C(=O)C=C(N2CC2)C1=O` (stereo unspecified), for which the TGI in the assay with ACHN renal amounted to 0.173 µM; in the assay with CAKI-1 renal it was 0.124 µM; in the assay on HCT-15 colon, 1.96 µM; with HOP-62 NSCLC it was 4.69 µM; in the assay on K-562 leukemia, 4.54 µM; in the assay on MALME-3M melanoma, 0.0872 µM. Moreover, the TGI in the assay with MDA-MB-435 was determined as 1.71 µM; in the assay on MOLT-4 leukemia, 0.208 µM; in the assay on NCI-H460 lung, 5.96 µM; in the assay on NCI/ADR-RES ovarian, 1.28 µM; in the assay with RPMI-8226 leukemia, 1.37 µM; in the assay with RXF 393 renal, 0.241 µM. Further, the TGI in the assay on SK-MEL-2 melanoma amounted to 0.439 µM; in the assay with SK-MEL-28 melanoma, 0.147 µM; in the assay with SK-OV-3 ovarian it was 6.15 µM; in the assay with SN12C renal, 1.86 µM; in the assay on SNB-19 CNS it was 10.8 µM; in the assay on SW-620 colon, 0.146 µM.
With `CC1(C)COC(c2cccc(C(O)c3ccc(Cl)cc3)c2)=N1` (stereo unspecified), the TGI in the assay on ACHN renal was above 100 µM; in the assay on CAKI-1 renal it was 87.1 µM; with HOP-62 NSCLC, 88.6 µM; in the assay on K-562 leukemia, above 100 µM; in the assay with KM12 colon it was above 100 µM; with MALME-3M melanoma it was 59.9 µM. For the same molecule, the TGI in the assay on MDA-MB-435 was 67.3 µM; in the assay with MOLT-4 leukemia, 59.3 µM; with NCI-H460 lung, above 100 µM; with NCI/ADR-RES ovarian it was 77.2 µM; in the assay with RPMI-8226 leukemia it was 89.1 µM; in the assay on RXF 393 renal, 37.8 µM. The TGI is 47.5 µM in the assay with SK-MEL-2 melanoma; above 100 µM in the assay with SK-MEL-28 melanoma; 65.1 µM in the assay on SK-OV-3 ovarian; 73.9 µM with SN12C renal; above 100 µM in the assay with SNB-19 CNS; above 100 µM in the assay with SW-620 colon.
Consider `C#CCC(O)c1ccc(OC)c(OCc2ccccc2)c1` (stereo unspecified), for which the TGI with ACHN renal, with CAKI-1 renal, in the assay with HCT-15 colon, in the assay on HOP-62 NSCLC, with K-562 leukemia and in the assay with KM12 colon was above 100 µM in each case. For the same molecule, the TGI in the assay with MALME-3M melanoma is above 100 µM; with MDA-MB-435, above 100 µM; in the assay on MOLT-4 leukemia, 56.6 µM; in the assay with NCI-H460 lung, above 100 µM; with NCI/ADR-RES ovarian, above 100 µM; in the assay with RPMI-8226 leukemia, above 100 µM. For the same molecule, the TGI with RXF 393 renal, with SK-MEL-2 melanoma, in the assay with SK-MEL-28 melanoma, in the assay with SK-OV-3 ovarian, in the assay on SN12C renal and with SNB-19 CNS was above 100 µM throughout.
On to `CSc1ccccc1NC1=NCCO1`, for which the TGI in the assay with ACHN renal, in the assay with CAKI-1 renal, in the assay with HCT-15 colon, in the assay with HOP-62 NSCLC, in the assay with K-562 leukemia and with KM12 colon was above 100 µM each time. Also, the TGI in the assay with MALME-3M melanoma, in the assay with MDA-MB-435, with MOLT-4 leukemia, with NCI-H460 lung, in the assay on NCI/ADR-RES ovarian and with RPMI-8226 leukemia was above 100 µM in each case. In addition, the TGI with RXF 393 renal, in the assay with SK-MEL-2 melanoma, in the assay on SK-MEL-28 melanoma, in the assay on SN12C renal, in the assay with SNB-19 CNS and with SW-620 colon was above 100 µM in each case.
